In ChEMBL document CHEMBL1201862, “PubChem BioAssay data set” (2004):
Active and inactive are the calls of the source.

Legend:
Candida albicans [1] = assay: resistant Candida growth with fluconazole co-treatment – CaCi-8 strain, Alamar Blue, dry powder, set 2, dose response (AID 488909); type: functional, organism-based
Candida albicans [2] = assay: fluconazole-resistant Candida strain growth inhibitors – CaCi-8 strain, dry powder, set 4, dose response (AID 488950); type: functional, organism-based
Candida albicans [3] = assay: C. albicans growth inhibition with fluconazole – CaCi-2 strain, Alamar Blue, dry powder, set 4, dose response (AID 488943); type: functional, organism-based
MEF = assay: SAR analysis of small molecule cytotoxicity of MazEF TA System activators in embryonic fibroblast (MEF) cells. [Related pubchem assays (depositor defined):AID504720, AID504743]; type: functional; settings: Mus musculus
[4] = target: T1, Endoribonuclease toxin MazF (Escherichia coli K-12, UniProt P0AE70); assay: substrate-only fluorescence increase artefacts – biochemical, single-stranded RNase substrate, counter-screen for MazEF activator project, dose response (AID 588502); type: functional
T1 sequence (P0AE70 whole entry): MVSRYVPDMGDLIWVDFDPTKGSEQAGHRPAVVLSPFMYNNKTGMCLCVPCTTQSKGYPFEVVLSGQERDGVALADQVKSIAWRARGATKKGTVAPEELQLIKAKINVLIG

[5] = target: T1, Endoribonuclease toxin MazF; assay: MazEF toxin-antitoxin RNase activation – biochemical, fluorescence, single-stranded RNA substrate, SAR follow-up (AID 588603); type: functional
[6] = target: T1, Endoribonuclease toxin MazF; assay: activation of MazEF endoribonuclease cleavage – biochemical, fluorescence, single-stranded RNA substrate, uHTS hits, dose response (AID 588481); type: functional
[7] = target: T1, Endoribonuclease toxin MazF; assay: SAR analysis of small molecule activators of the MazEF TA System via a fluorescence-based single-stranded RNase assay counterscreen. [Related pubchem assays (depositor defined):AID504720, AID504743]; type: functional
Cysteine protease ATG4B = Cysteine protease ATG4B (Homo sapiens, UniProt Q9Y4P1); type: functional;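 also: Fluorescence-based dose-response confirmation assay measuring inhibition of ATG4B activity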
Cysteine protease ATG4B, sequence (Q9Y4P1 whole entry): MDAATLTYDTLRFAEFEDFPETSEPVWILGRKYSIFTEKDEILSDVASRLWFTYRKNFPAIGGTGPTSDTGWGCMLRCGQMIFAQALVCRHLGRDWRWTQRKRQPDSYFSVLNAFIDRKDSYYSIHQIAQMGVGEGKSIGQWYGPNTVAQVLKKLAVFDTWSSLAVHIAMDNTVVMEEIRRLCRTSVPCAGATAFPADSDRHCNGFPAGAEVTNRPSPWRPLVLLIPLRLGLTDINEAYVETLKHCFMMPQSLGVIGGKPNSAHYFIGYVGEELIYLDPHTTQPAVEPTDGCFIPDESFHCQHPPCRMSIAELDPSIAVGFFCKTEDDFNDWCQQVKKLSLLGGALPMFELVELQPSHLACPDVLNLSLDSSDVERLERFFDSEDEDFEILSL

Phospholipase A2 = Phospholipase A2 (Homo sapiens, UniProt P04054); type: functional;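 also: confirmatory dose-response counterscreen on phospholipase A2, testing hits that came from an ultra-high-throughput screen for ATG4B inhibitors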
Phospholipase A2, sequence (P04054 whole entry): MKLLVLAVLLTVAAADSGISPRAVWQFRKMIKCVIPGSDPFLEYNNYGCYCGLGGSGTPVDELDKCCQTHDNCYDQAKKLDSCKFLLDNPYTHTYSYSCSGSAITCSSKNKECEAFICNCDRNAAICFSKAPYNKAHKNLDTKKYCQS

HEK293 [8] = assay: EBV LMP1 TES2 canonical NF-kB signalling blockers – cell-based, HEK293, luciferase, cherry-pick, dose response (AID 588343); type: functional; settings: Homo sapiens
Paired box protein Pax-8 = Paired box protein Pax-8 (Homo sapiens, UniProt Q06710); assay: PAX8 transcriptional activity inhibition in RMG-I – RMG-I cells, luciferase, cherry-pick, dose response (AID 687027); type: functional, cell-based;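 also: luciferase reporter driven by Pax8 target thyroperoxidase promoter measured by SteadyGlo luminescence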
Paired box protein Pax-8, sequence (Q06710 whole entry): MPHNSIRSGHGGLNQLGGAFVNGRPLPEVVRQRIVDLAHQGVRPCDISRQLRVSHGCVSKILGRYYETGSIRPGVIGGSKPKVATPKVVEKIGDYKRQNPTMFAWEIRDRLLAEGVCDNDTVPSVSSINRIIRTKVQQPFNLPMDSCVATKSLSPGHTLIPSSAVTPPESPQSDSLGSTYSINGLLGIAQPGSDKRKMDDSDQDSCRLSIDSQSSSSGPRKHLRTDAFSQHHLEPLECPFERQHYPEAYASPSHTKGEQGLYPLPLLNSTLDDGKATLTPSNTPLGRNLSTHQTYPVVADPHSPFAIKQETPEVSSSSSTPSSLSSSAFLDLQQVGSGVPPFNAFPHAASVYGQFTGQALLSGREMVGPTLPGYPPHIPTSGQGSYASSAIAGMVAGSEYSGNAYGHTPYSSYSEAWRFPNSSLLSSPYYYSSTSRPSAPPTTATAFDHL

HEK293 [9] = assay: SAR Analysis of small molecule inhibitors of T-cell specific antigen receptor-induced NF-kB activation in a HEK-293T cell line using a luminescence assay - Set 2. [Related pubchem assays (depositor defined):AID435003, AID435012, AID489026]; type: functional, cell-based; settings: Homo sapiens
[10] = reduction of Shn3 3'UTR-driven luciferase in osteoblasts – cell-based, Clone20 osteoblasts, firefly luciferase, cherry-picked, dose response (AID 624132); type: functional;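 also: firefly luciferase luminescence from reporter carrying the Shn3 3'UTR in osteoblasts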
BJ [11] = assay: BJ-TERT fibroblast viability loss – cell-based, RAS-independent, luminescence, dose response (AID 1933); type: functional; settings: Homo sapiens
Jurkat = assay: SAR Analysis of small molecule inhibitors of T-cell specific antigen receptor-induced NF-kB activation in a Jurkat cell line using a luminescence assay - Set 2. [Related pubchem assays (depositor defined):AID435003, AID435012, AID465]; type: functional, cell-based; settings: Homo sapiens
[12] = Luminescence-based dose response cell-based high throughput screening assay for cytotoxic compounds using the IEC-6 intestinal epithelial cell line. [Related pubchem assays: 1858 (Summary AID.), 1825 (Counterscreen.), 1907 (Confirmation screen.)]; type: functional
INS1 = assay: INS-1E survival protection against cytokine death – cell-based, luminescence, retest, dose response (AID 449756); type: functional; settings: Rattus norvegicus;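 also: cell death triggered by IL-1 beta plus TNF-alpha plus IFN-gamma mixture; protective hits raise ATP signal compared with cytokine alone wells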
[13] = DRD fibroblast viability loss – cell-based, non-viral oncogenic, luminescence, dose response (AID 1934); type: functional; settings: Homo sapiens
BJ [14] = assay: BJ-TERT-LT-ST fibroblast viability loss – cell-based, RAS-independent, luminescence, dose response (AID 1935); type: functional; settings: Homo sapiens;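 also: BJ fibroblasts immortalized with TERT plus LT and ST oncogenes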
[15] = non-specific 3'UTR reporter inhibition in Clone20-Shn3RL – cell-based, Renilla luciferase, cherry-picked, counter-screen for Shn3 inhibitor project, dose response (AID 624133); type: functional
[16] = Trypanosoma cruzi growth suppression in host cells – NIH3T3 host cells, beta-gal luminescence, confirmation (AID 2044); type: functional, cell-based;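 also: intracellular parasites grown in NIH/3T3 mouse fibroblasts as host cells; luminescent beta-galactosidase reporter signal from transgenic T. cruzi replicating inside host cells; inhibitors lower the luminescence signal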
[17] = loss of viability in HepG2 cells – cell-based, CellTiter-Glo, cherry-picked, cytotoxicity control for Shn3 inhibitor project, dose response (AID 624134); type: functional
BJ [18] = assay: cells; type: functional, cell-based; settings: Homo sapiens
[19] = target: Heat shock protein HSP 90-alpha (Homo sapiens, UniProt P07900); type: functional, organism-based
Exodeoxyribonuclease V = Exodeoxyribonuclease V (Escherichia coli (strain K12), UniProt P04993+P07648+P08394); assay: RecBCD inhibition via phage-restricted bacterial growth – absorbance, V66 E. coli, mutant T4 phage, counter-screen for AddAB inhibitor project, dose response (AID 492957); type: functional, cell-based, Escherichia coli str. K-12 substr. MG1655
Exodeoxyribonuclease V, sequence (P04993 whole entry): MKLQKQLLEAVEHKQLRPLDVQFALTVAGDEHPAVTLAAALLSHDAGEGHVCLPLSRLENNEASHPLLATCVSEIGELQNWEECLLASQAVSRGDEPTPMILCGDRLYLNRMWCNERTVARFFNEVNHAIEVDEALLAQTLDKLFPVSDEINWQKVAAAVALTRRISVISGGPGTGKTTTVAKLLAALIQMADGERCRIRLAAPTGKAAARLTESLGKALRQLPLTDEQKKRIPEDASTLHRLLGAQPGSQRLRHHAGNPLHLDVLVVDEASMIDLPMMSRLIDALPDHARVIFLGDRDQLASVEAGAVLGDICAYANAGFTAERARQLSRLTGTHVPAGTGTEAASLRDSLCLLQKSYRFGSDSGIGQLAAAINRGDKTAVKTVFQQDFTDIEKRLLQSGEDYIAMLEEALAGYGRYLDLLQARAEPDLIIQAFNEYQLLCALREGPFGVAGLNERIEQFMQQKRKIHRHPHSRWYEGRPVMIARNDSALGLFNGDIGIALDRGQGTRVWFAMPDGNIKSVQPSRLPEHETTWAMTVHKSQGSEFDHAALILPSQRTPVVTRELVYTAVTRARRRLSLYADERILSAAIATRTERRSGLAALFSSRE
Exodeoxyribonuclease V, sequence (P07648 whole entry): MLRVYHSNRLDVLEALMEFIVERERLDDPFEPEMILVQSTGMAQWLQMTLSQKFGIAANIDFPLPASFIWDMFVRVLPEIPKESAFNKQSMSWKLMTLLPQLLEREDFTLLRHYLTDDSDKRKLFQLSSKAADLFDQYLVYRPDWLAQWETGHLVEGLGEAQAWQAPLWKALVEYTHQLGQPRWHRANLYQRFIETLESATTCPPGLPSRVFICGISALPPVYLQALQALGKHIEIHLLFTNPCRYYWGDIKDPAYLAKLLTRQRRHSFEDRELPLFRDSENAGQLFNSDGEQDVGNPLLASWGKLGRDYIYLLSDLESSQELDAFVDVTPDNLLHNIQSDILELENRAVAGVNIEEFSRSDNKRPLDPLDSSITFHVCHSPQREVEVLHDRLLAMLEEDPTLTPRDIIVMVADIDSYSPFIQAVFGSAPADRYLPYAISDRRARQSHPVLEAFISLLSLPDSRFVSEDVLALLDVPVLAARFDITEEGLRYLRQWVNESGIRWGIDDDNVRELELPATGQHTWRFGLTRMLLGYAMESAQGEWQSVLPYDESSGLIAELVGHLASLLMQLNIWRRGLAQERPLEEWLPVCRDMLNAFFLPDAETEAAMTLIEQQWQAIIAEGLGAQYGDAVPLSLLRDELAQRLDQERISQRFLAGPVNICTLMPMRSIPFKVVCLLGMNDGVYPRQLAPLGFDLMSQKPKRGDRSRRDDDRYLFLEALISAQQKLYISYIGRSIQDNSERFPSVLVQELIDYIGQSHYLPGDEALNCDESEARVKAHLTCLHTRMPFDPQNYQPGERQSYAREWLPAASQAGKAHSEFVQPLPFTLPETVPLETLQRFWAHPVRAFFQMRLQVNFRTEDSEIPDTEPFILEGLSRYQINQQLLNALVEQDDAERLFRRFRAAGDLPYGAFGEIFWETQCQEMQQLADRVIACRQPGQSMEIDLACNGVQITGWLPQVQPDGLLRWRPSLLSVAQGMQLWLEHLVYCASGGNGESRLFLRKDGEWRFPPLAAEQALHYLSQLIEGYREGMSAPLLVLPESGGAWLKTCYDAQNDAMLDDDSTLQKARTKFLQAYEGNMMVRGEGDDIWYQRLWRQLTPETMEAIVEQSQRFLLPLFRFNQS
Exodeoxyribonuclease V, sequence (P08394 whole entry): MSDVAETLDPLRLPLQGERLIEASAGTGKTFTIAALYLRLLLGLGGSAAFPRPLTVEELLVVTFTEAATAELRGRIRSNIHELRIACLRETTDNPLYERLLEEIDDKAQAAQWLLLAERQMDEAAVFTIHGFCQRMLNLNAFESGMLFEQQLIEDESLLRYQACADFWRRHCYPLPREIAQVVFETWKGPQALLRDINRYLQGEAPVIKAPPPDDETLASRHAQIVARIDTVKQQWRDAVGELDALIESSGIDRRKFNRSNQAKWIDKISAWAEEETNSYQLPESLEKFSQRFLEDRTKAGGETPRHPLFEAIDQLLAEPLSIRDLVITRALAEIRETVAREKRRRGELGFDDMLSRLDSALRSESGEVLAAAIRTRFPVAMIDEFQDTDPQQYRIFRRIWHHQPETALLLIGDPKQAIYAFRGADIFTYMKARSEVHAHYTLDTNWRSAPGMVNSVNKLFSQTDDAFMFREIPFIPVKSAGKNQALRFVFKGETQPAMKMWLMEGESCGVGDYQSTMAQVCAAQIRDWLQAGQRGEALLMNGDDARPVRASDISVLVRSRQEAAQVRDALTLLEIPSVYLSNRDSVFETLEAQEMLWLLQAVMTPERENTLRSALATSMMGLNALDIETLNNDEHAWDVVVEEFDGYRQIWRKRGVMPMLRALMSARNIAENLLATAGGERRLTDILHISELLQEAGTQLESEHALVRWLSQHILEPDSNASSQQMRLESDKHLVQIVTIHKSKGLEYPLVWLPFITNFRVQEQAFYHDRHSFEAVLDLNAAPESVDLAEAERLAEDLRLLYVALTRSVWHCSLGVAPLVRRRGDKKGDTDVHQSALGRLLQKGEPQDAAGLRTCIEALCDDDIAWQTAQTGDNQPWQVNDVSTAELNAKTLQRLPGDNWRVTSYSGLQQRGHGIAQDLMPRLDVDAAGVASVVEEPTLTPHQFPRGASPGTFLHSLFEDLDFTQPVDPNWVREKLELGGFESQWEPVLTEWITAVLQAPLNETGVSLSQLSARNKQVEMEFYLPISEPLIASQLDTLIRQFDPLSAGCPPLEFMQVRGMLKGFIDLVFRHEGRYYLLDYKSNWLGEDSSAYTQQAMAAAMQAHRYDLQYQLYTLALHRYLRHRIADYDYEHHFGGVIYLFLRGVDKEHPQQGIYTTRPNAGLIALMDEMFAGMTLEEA

[20] = NIH3T3 cell viability loss – ATP luminescence, mouse fibroblasts, counter-screen, dose response (AID 2010); type: functional, cell-based;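 also: cells exposed to compound for about 90 hours before reading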
cells [21] = type: functional, cell-based
[22] = HEK-293T viability loss after treatment – luminescence, T-cell screen hits, cytotoxicity control for TCR NF-kB inhibitor project, dose response (AID 489026); type: functional, cell-based;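 also: cells exposed to compound about 14 hours before the viability readout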
cells [23] = type: functional, cell-based; remark: listed apart in the source
HEK293 [24] = assay: HEK293T cell viability loss, resazurin readout – resazurin fluorescence, cytotoxicity control for NF-kB activator project, SAR follow-up (AID 493251); type: functional, cell-based; settings: Homo sapiens
[25] = Counterscreen for AddAB inhibitors: absorbance-based bacterial cell-based high throughput dose response assay for inhibitors of bacterial viability. [Related pubchem assays (depositor defined):AID435030, AID449728, AID449731, AID488942, AID488955, AID488956]; type: functional

COc1ccc2c(N3CCN(C(=O)c4ccc(Cl)cc4)CC3)ccnc2c1
active: AC50 (Candida albicans [1]) 18.4 µM | AC50 (Candida albicans [2]) 8.86 µM | AC50 (Candida albicans [3]) 12.4 µM

CN1C(=O)C(C)(C)c2cc(S(=O)(=O)NCc3ccc(C(=O)NCc4ccco4)cc3)ccc21
active: EC50 [5] 3.35 µM | EC50 [6] 7.01 µM
inactive: CC50 (MEF) > 99 µM | EC50 [4] 29.2 µM | EC50 [7] > 99 µM

Cc1ccc(-n2c(SCC(=O)N/N=C/C=C/c3ccccc3[N+](=O)[O-])nc3ccccc3c2=O)cc1
active: IC50 (Cysteine protease ATG4B) 6.42 µM | IC50 (Phospholipase A2) 2.53 µM

CC(=O)NC(c1ccc(C(C)C)cc1)c1ccc2cccnc2c1O (configuration not stated)
active: AC50 (HEK293 [8]) 5.2 µM | AC50 (Paired box protein Pax-8) 2.03 µM | IC50 (HEK293 [9]) 5.24 µM | AC50 [10] 0.528 µM | EC50 (BJ [11]) 0.958 µM | IC50 (Jurkat) 2.6 µM | IC50 [12] 1.36 µM | AC50 (INS1) 0.494 µM | AC50 [15] 0.35 µM | EC50 [16] 0.337 µM | AC50 [17] 1.3 µM | AC50 [19] 3.58 µM | EC50 [20] 0.424 µM | EC50 (cells [23]) 3.64 µM
inactive: IC50 (Exodeoxyribonuclease V) > 118 µM | IC50 [22] > 80 µM | IC50 (HEK293 [24]) 56.1 µM | IC50 [25] > 118 µM
inconclusive: EC50 [13] 8.18 µM | EC50 (BJ [14]) 8.47 µM | EC50 (BJ [18]) 2.29 µM
> 350 µM (not active): EC50 (cells [21])
